Test results taken from patent US9907847B2, “Pyrrolopyrimidines as therapeutic agents for the treatment of diseases” (GlaxoSmithKline LLC, priority 2012, dated 2018).
Where a name gives a salt, the structure may show the parent alone.

Columns and labels:
TNF-α = assay: Induction of TNF-α using fresh human whole blood (WB); assay type: cell-based; conditions: three donors, overnight incubation, response as % of 2 μM resiquimod control, read-out: mean pEC50 for TNF-α (converted)
Description: (§1) Assay for the Induction of Interferon-[…] and TNF-[…] Using Fresh Human Whole Blood (WB)
(§2) Compounds were prepared at 100× required concentration in DMSO in flat-bottom microtitre plates at a volume of 1.5 μL. Columns 1-10 contained a 1 in 4 serial dilution of the test compound. Included on each plate was a serial dilution of the TLR7/8 agonist resiquimod as a standard and Column 11 contained 1.5 μl of 200 μM resiquimod (giving a 2 μM final concentration, used to define the approximate maximal response to resiquimod). Each compound was assayed in duplicate for each donor.
(§3) Blood samples from three human donors were collected into sodium heparin (10 U/ml). 150 μl of whole Blood was dispensed into Col 1 to 11 of assay plates containing 1.5 μl of test compound or standard in DMSO. Plates were placed in an incubator overnight (37° C., 95% air, 5% CO2). Following the overnight incubation, plates were removed from the incubator & mixed on an orbital shaker for approximately 1 minute. 100 μl of 0.9% saline was added to each well and the plates mixed again on an orbital shaker. Plates were then centrifuged (2500 rpm, 10 mins), after which a sample of plasma was removed using a Biomek FX and assayed for both IFN-α and TNF-α using the MSD (Mesoscale Discovery) electrochemiluminescence assay platform. The IFN-α assay was carried out similarly to that described above. The TNF-α assay was carried out as per kit instructions (Cat No K111BHB).
(§4) Cytokine released was expressed as a percentage of the 2 μM resiquimod control (column 11). This percentage was plotted against compound concentration and the pEC50 for the response determined by non-linear least squares curve fitting. For the IFN-α responses, generally a 4 parameter logistic model was selected. For the TNF-α responses where a clear maximum response was obtained (i.e. a well defined plateau in the response was observed) then a 4 parameter model was generally used. If the upper asymptote of the curve wasn't well defined then the curve fitting was generally constrained to a maximal response of 100% (i.e. to the response to 2 μM resiquimod) or to the response of the highest concentration tested if this was greater than the resiquimod response. Some curves were bell shaped for one or both cytokines and the cytokine data on the down slope of the bell shaped response (i.e. concentrations above those giving the maximal response) were generally excluded from the fit, usually with the exception of the concentration immediately above the peak response. Curve fitting thus concentrated on the up slope of the dose response curve.

IFN-α = assay: Induction of interferon-α using fresh human whole blood (WB); assay type: cell-based; conditions: three donors, overnight incubation, response as % of 2 μM resiquimod control, read-out: mean pEC50 for IFN-α (converted)
Description: as §1, §2, §3, §4

| SMILES | EC50 (TNF-α) | EC50 (IFN-α) |
| --- | --- | --- |
| CCCCc1nc(N)c2[nH]c(C)c(CCCCCCN3CCC3)c2n1 [Example 15, 7-(6-(Azetidin-1-yl)hexyl)-2-butyl-6-methyl-5H-pyrrolo[3,2-d]pyrimidin-4-amine] | ≥ 5.01 µM | ≤ 5.01 µM |
| CCCCc1nc(N)c2[nH]c(C)c(CCCCCCN3CCCC3)c2n1 [Example 14, 2-Butyl-6-methyl-7-(6-(pyrrolidin-1-yl)hexyl)-5H-pyrrolo[3,2-d]pyrimidin-4-amine] | ≥ 5.01 µM | ≤ 5.01 µM |
| CCCCCc1nc(N)c2[nH]cc(CCCCCCN3CCCCC3)c2n1 [Example 11, 2-Pentyl-7-(6-(piperidin-1-yl)hexyl)-5H-pyrrolo[3,2-d]pyrimidin-4-amine] | ≥ 5.01 µM | ≤ 5.01 µM |
| CCCCc1nc(N)c2[nH]cc(CCCCCCN3CC[C@@H](F)C3)c2n1 [Example 32, (R)-2-Butyl-7-(6-(3-fluoropyrrolidin-1-yl)hexyl)-5H-pyrrolo[3,2-d]pyrimidin-4-amine] | ≥ 5.01 µM | ≤ 5.01 µM |
| CCCCc1nc(N)c2[nH]c(C)c(CCCCCN3CC[C@H](F)C3)c2n1 [Example 40, (S)-2-Butyl-7-(5-(3-fluoropyrrolidin-1-yl)pentyl)-6-methyl-5H-pyrrolo[3,2-d]pyrimidin-4-amine] | ≥ 5.01 µM | ≤ 5.01 µM |
| CCCCc1nc(N)c2[nH]cc(CCCCCN3CC(O)C3)c2n1 [Example 29, 1-(5-(4-Amino-2-butyl-5H-pyrrolo[3,2-d]pyrimidin-7-yl)pentyl)azetidin-3-ol formate] | ≥ 5.01 µM | ≤ 5.01 µM |
| CCCCc1nc(N)c2[nH]c(C)c(CCCCCN3CC(F)C3)c2n1 [Example 42, 2-Butyl-7-(5-(3-fluoroazetidin-1-yl)pentyl)-6-methyl-5H-pyrrolo[3,2-d]pyrimidin-4-amine] | ≥ 5.01 µM | ≤ 5.01 µM |
| CCCCc1nc(N)c2[nH]cc(CCCCCN3CCCCCC3)c2n1 [Example 12, 7-(5-(Azepan-1-yl)pentyl)-2-butyl-5H-pyrrolo[3,2-d]pyrimidin-4-amine] | ≥ 5.01 µM | ≤ 5.01 µM |
| COCCc1nc(N)c2[nH]cc(CCCCCN3CC[C@H](F)C3)c2n1 [Example 27, (S)-7-(5-(3-Fluoropyrrolidin-1-yl)pentyl)-2-(2-methoxyethyl)-5H-pyrrolo[3,2-d]pyrimidin-4-amine formate] | ≥ 5.01 µM | ≤ 5.01 µM |
| COCCc1nc(N)c2[nH]cc(CCCCCN3CC[C@@H](F)C3)c2n1 [Example 26, (R)-7-(5-(3-Fluoropyrrolidin-1-yl)pentyl)-2-(2-methoxyethyl)-5H-pyrrolo[3,2-d]pyrimidin-4-amine formate] | ≥ 5.01 µM | ≤ 5.01 µM |
| COCCc1nc(N)c2[nH]cc(CCCCCN3CCC(F)CC3)c2n1 [Example 22, 7-(5-(4-Fluoropiperidin-1-yl)pentyl)-2-(2-methoxyethyl)-5H-pyrrolo[3,2-d]pyrimidin-4-amine] | ≥ 5.01 µM | ≤ 5.01 µM |
| CCCCc1nc(N)c2[nH]c(C)c(CCCCCN3CCCC3)c2n1 [Example 16, 2-Butyl-6-methyl-7-(5-(pyrrolidin-1-yl)pentyl)-5H-pyrrolo[3,2-d]pyrimidin-4-amine] | ≥ 5.01 µM | ≤ 5.01 µM |
| CCCCc1nc(N)c2[nH]cc(CCCCCCN3CCCCC3)c2n1 [Example 1, 2-Butyl-7-(6-(piperidin-1-yl)hexyl)-5H-pyrrolo[3,2-d]pyrimidin-4-amine formate] | ≥ 5.01 µM | ≤ 5.01 µM |
